These results are taken from patent publication US20260102377A1, “COMPOSITIONS AND METHODS FOR TREATING MYASTHENIA GRAVIS” (priority 2022, published 2026).

For this experiment, the system named is EAMG rats. Description: Grip strength test after single dose of Mestinon and CIC-1 inhibitor alone or in combination. The experiment is classed as in vivo, rat. Conditions: per oral, 45 minutes post dosing, 0.375 mg/kg Mestinon, 20 mg/kg NMD670 or both. The protocol:
To induce EAMG, 250 μL of emulsion of Complete Freund's Adjuvant, consisting of heat-inactivated Mycobacterium tuberculosis H37Ra in non-metabolizable oils, together with Phosphate-Buffered Saline (PBS) and 80 μg of the extracellular α-domain peptide fragment of the human nicotinic acetylcholine receptor (antigen) was injected subcutaneously in seven-week-old, anaesthetized Lewis rats. The disease-inducing antigen was supplied by the Hellenic Pasteur institute3. The emulsion was deposited at the tail base, left hindleg, and right foreleg. After injection, animals were allowed to recover and returned to their home cage maintained in ventilated racks under controlled temperature (20 to 22° C.) and humidity (˜55%) control, under a 12-h light/12-h dark cycle with food and water provided ad libitum. The animals had pathogen free status and the housing and changing system was designed to assure that the pathogen free status was preserved during the study. The EAMG rats were observed, weighed, and scored for MG symptoms weekly until symptoms of MG developed, whereafter animals were observed daily.
In EAMG animals with severe MG symptoms the effects of CIC-1 inhibitor and Mestinon (pyridostigmine) alone or in combination was assessed. […] The study was blinded to both the experimenter and during subsequent analysis. Animals were subjected to grip strength test before compound administration, as described above and then dosed per oral with either 0.375 mg/kg pyridostigmine bromide (Mestinon) (CAS-no 101-26-8), 20 mg/kg NMD670 or a combination of both pyridostigmine and NMD670. Grip strength was tested 45 minutes post dosing. […] The change in grip strengths was calculated for individual animals relative to the results obtained prior to administration of test article and then averaged.
Grip strength was measured on a BIOSEB BIO-GT3 Grip strength meter (force transducer, S/N 180271). […] Care was taken to ensure that the force recorded reflected the grip strength of the rat and not the force of the pulls conducted by the operator. […]

Values joined by “and” are separate entries in the source; they are usually repeats but may differ in a detail not shown here. Identical values can stand only once.

As to `CN(C)C(=O)Oc1ccc[n+](C)c1` [Mestinon, pyridostigmine bromide, reference compound], the “Increase in Pulled Force (%)” value is 5±4% and 5.3 ± 3.8%.
